Our source for the inhibition and IC50 values is ChEMBL document CHEMBL4616644, “Furofuranone Lignans from Leucophyllum ambiguum” (J Nat Prod, 2020).

For test [1], the target named is T1, Acetylcholinesterase (Homo sapiens, UniProt P22303). In words: Inhibition of acetylcholinesterase (unknown origin) at 0.01 to 100 uM using acetylthiocholine as substrate preincubated for 30 mins followed by substrate addition and measured after 2 mins by Ellman's method relative to control.
In test [2] the target is T1, Acetylcholinesterase. In words: Inhibition of acetylcholinesterase (unknown origin) using acetylthiocholine as substrate preincubated for 30 mins followed by substrate addition and measured after 2 mins by Ellman's method.

A value given as a limit tells only on which side of the number the result lay.

T1 sequence (P22303 whole entry): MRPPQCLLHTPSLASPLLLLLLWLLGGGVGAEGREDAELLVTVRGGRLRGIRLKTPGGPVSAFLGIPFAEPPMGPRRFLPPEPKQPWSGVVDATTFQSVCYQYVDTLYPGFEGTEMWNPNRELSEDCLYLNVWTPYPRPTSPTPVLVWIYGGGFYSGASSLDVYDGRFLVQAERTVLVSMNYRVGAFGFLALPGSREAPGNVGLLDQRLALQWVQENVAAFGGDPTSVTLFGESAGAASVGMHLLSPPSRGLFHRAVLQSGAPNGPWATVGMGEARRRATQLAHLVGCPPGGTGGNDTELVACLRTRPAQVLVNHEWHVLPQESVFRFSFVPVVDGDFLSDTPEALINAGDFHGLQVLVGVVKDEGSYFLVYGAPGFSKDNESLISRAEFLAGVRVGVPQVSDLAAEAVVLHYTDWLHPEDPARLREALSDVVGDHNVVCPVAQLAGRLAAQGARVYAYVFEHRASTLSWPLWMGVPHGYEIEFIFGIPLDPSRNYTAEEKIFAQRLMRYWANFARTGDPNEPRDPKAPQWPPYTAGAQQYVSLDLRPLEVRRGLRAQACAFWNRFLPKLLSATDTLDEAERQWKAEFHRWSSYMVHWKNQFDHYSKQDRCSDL

The compound `COc1ccc([C@H](O)[C@H](N)C(=O)O)cc1OC` showed an inhibition in test [1] of over 70%. This compound showed an IC50 in test [2] of 1 nM.
In test [1], `COc1ccc([C@H]2OC[C@H]3[C@@H]2C(=O)O[C@@H]3c2ccc3c(c2)OCO3)cc1OC` displayed an inhibition of over 70%. In test [2], this compound registered an IC50 of 2230 nM.
Taken in the same sequence, the figures for `COc1ccc([C@H]2O[C@@H](O)[C@H]3[C@@H]2C(=O)O[C@@H]3c2ccc(OC)c(OC)c2)cc1OC` were over 70% and 28 nM.
Taken in the same sequence, the figures for `COc1cc([C@H]2OC[C@H]3[C@@H]2CO[C@@H]3c2cc(OC)c3c(c2)OCO3)cc(OC)c1OC` were 81% and 460 nM.
The matching figures for `COc1ccc([C@H]2OC[C@H]3[C@@H]2CO[C@@H]3c2cc(OC)c(OC)c(OC)c2)cc1OC`: over 90% and 903 nM.
`COc1cc([C@H]2OC[C@H]3[C@@H]2CO[C@@H]3c2cc(OC)c(OC)c(OC)c2)cc(OC)c1OC` had an inhibition in test [1] of 65%. In test [2], this compound displayed a 50% inhibitory concentration (IC50) of 616 nM.
The matching figures for `COc1ccc([C@H]2OC(=O)[C@H]3[C@@H]2C(=O)O[C@@H]3c2ccc3c(c2)OCO3)cc1OC`: over 90% and 158 nM.
In test [1], `COc1ccc([C@H]2O[C@@H](O)[C@H]3[C@@H]2C(=O)O[C@@H]3c2cc(OC)c3c(c2)OCO3)cc1OC` displayed an inhibition of over 70%. In test [2], this compound gave an IC50 of 3 nM.
